# Test results taken from ChEMBL document CHEMBL4387726, “Design and synthesis of novel tellurodibenzoic acid compounds as kidney-type glutaminase (KGA) inhibitors” (Bioorg Med Chem Lett, 2019).
# Columns and labels:
# [1] = Inhibition of Escherichia coli TrxR pre treated with 0.5 hr followed by DTNB addition and measured after 1 hr
# [2] = Inhibition of human KGA assessed as reduction in glutamate formation using glutamine as substrate pretreated with 0.5 hr followed by substrate addition and measured after 4 hrs by KGA/GDH coupled assay
# [3] = Inhibition of Escherichia coli GDH using glutamate as substrate pre treated with 1 hr followed by substrate addition and measured after 1 hr
# HCT-116 = test: Antiproliferative activity against human HCT116 cells assessed as reduction in cell viability after 5 days by EZMTT assay; format: functional, cell-based; conditions: HCT-116, 120 h
# [4] = Stability of the compound in nucleophilic (beta-ME) solution at 37 degC for 24 hrs by HPLC analysis; format: physicochemical
# [5] = Stability of the compound in oxidative (H2O2) solution at 37 degC for 24 hrs by HPLC analysis; format: physicochemical
# [6] = Stability of the compound in acidic (HCOOH) solution at 37 degC for 24 hrs by HPLC analysis; format: physicochemical
# [7] = Stability of the compound in basic (NH3.H2O) solution at 37 degC for 24 hrs by HPLC analysis; format: physicochemical
# [8] = Stability of the compound in nucleophilic (DTT) solution at 37 degC for 24 hrs by HPLC analysis; format: physicochemical
# [9] = Stability of the compound in nucleophilic (lysine) solution at 37 degC for 24 hrs by HPLC analysis; format: physicochemical
SMILES,IC50 [1] [µM],IC50 [2] [µM],IC50 [3] [µM],EC50 (HCT-116) [µM],Stability [4],Stability [5],Stability [6],Stability [7],Stability [8],Stability [9]
O=C(OCc1ccccc1)c1cc(Br)ccc1[Te]c1ccc(Br)cc1C(=O)OCc1ccccc1,> 66.7,> 66.7,> 66.7,> 50,,,,,,
O=C(O)c1ccccc1[Te]c1ccccc1C(=O)O,> 66.7,7,> 66.7,17.8,,,,,,
O=C(O)c1cc(I)ccc1[Te]c1ccc(I)cc1C(=O)O,> 66.7,7.4,> 66.7,25.6,,,,,,
Cc1ccc([Te]c2ccc(C)cc2C(=O)O)c(C(=O)O)c1,> 66.7,10.2,> 66.7,16.9,,,,,,
COc1ccc([Te]c2ccc(OC)cc2C(=O)O)c(C(=O)O)c1,> 66.7,7.8,> 66.7,10.2,,,,,,
COc1cccc(C(=O)O)c1[Te]c1c(OC)cccc1C(=O)O,> 66.7,> 66.7,> 66.7,> 50,,,,,,
O=C(O)c1cc(Br)ccc1[Te]c1ccc(Br)cc1C(=O)O,> 66.7,2.4,> 66.7,5,Unstable,Stable,Stable,Stable,Unstable,Unstable
CCOC(=O)c1cc(Br)ccc1[Te]c1ccc(Br)cc1C(=O)OCC,> 66.7,> 66.7,> 66.7,> 50,,,,,,
O=C(O)c1cc(O)ccc1[Te]c1ccc(O)cc1C(=O)O,> 66.7,6.3,> 66.7,18,,,,,,
CNC(=O)c1cc(Br)ccc1[Te]c1ccc(Br)cc1C(=O)NC,> 66.7,> 66.7,> 66.7,> 50,,,,,,
COC(=O)c1cc(Br)ccc1[Te]c1ccc(Br)cc1C(=O)OC,> 66.7,> 66.7,> 66.7,> 50,,,,,,
CCNC(=O)c1cc(Br)ccc1[Te]c1ccc(Br)cc1C(=O)NCC,> 66.7,62.8,> 66.7,> 50,,,,,,
COc1ccc(C(=O)O)c([Te]c2cc(OC)ccc2C(=O)O)c1,> 66.7,11.3,> 66.7,7.5,,,,,,
O=C(Nc1ccccc1)c1cc(Br)ccc1[Te]c1ccc(Br)cc1C(=O)Nc1ccccc1,> 66.7,> 66.7,> 66.7,> 50,,,,,,
